# Tests used:
# [1] = system: NL-BAL; test: Antiviral activity assay in peripheral blood mononuclear cells (PBMC), p24 ELISA, NL-BAL; type: cell-based, HIV-1; details: Table 5, by weight; human PBMC, 6 days
# Protocol: Human PBMC are isolated from buffy-coats (obtained from the Stanford Blood Center) by a Ficoll-Paque (Amersham, Piscataway, N.J., USA) density gradient centrifugation according to manufacturer's protocol. Briefly, blood is transferred from the buffy coats in 50 ml conical tubes and diluted with sterile Dulbecco's phosphate buffered saline (Invitrogen/Gibco) to a final volume of 50 ml. Twenty-five ml of the diluted blood are transferred to two 50 ml conical tubes, carefully underlayerd with 12.5 ml of Ficoll-Paque Plus (Amersham Biosciences) and centrifuged at room temperature for 20 min. at 450×g without braking. The white cell layer is carefully transferred to a new 50 ml conical tube and washed twice with PBS. To remove remaining red blood cells, cells are incubated for 5 min. at room temperature with ACK lysis buffer (Biosource) and washed one more time with PBS. PBMC are counted and incubated at a concentration of 2-4×10^6 cells/ml in RPMI1640 containing 10% FCS (Invitrogen/Gibco), 1% penicillin/streptomycin, 2 mM L-glutamine, 1 mM sodium-pyruvate, and 2 μg/ml Phyto-hemagglutinin (Invitrogen) for 24 h at 37° C. […] Virus production is measured at the end of infection by using p24 ELISA (HIV-1 p24 ELISA #NEK050B, Perkin Elmer/NEN) using the sigmoid dose-response model with one binding site in Microsoft Excel Fit (version 3.0.5 Build 12; equation 205; Microsoft).
# [2] = system: NL-BAL (R5); test: Single-cycle antiviral activity assay (luciferase, JC53-BL cells), NL-BAL; type: cell-based, HIV; details: Table 3, by weight, pseudotyped virus, 3 day incubation
# Protocol: For the production of pseudotyped NL-Bal viruses, plasmid pNL4-3Δenv (HIV pNL4-3 genomic construct with a deletion within the env gene) and pcDNA3.1/NL-BAL env (pcDNA3.1 plasmid containing NL-Bal env gene (obtained from NIBSC Centralized Facility for AIDS Reagents)) were co-transfected into the HEK 293FT cell line (Invitrogen Corp.), cultured in Dulbecco's modified minimum medium (DMEM) containing 10% fetal calf serum (FCS), 100 U/mL Penicillin, 100 μg/mL Streptomycin, 2 mM L-glutamine and 0.5 mg/mL geniticin (all media from Invitrogen/Gibco). The supernatants containing pseudotyped viruses were harvested two days following transfection, and cellular debris was removed by filtration through a […] pore size PES (polyethersulfone) filter (Nalgene) and stored at −80° C. in aliquots. For normalization in assay performance, virus stock aliquots were used to infect JC53-BL (US NIH Aids Reagent Program) cells yielding approximately 1.5×10^5 RLU (relative light units) per well. […] The assay plates were read on a Luminometer (Luminoskan, Thermo Electron Corporation) after 10 minutes of incubation at room temperature. Percent inhibition of luciferase activity was calculated for each dose point after subtracting the background, and IC50 and IC90-values were determined by using XLfit curve fitting software for Excel (version 3.0.5 Build12; Microsoft).
sequence,measurement,setting,value
NMTWMEWDREINQYTSLIHSLIEESQNQQEKNEQELL [afp-1],Antiviral activity NL-BAL IC90,[1],—/57.6 ng/mL
same,Antiviral activity NL-BAL (R5) IC50,[2],19.6/— ng/mL
